Data: patent US20050153870A1, “Medicinal composition for diagnosis, prevention, or therapy of multiple risk factor syndrome” (priority 2002, published 2005)
Marks after values point to notes of the source that are not given here.

Tests used:
quail = assay: Arteriosclerosis suppressing effect, quail on cholesterol feed; type: in vivo; conditions: poultry feed containing 2% of cholesterol, 9 months, 0.0125 to 0.2% added to feed
Source text: As to prevention/therapy of arteriosclerosis, a big difference is observed in effect between medicaments conceivably effective in improving arteriosclerosis, such as fibrate series medicament, thiazolidine series medicament, probucol, and statin series medicament and a compound of the present invention.

[1] = in vivo; cited from earlier work
Mouse, db/db mouse = assay: Serum insulin decreasing effect; type: in vivo; conditions: about 0.1% added to feed
db/db mice = assay: Blood sugar decreasing effect in db/db mice (Example 7); type: in vivo, mouse; conditions: for Body weight / Blood sugar level: in feed for a week (MAC 0.05%, AS-103 0.05%, AR-610 0.1%, AF 0.4%, AC 0.05%); for Body weight: control group 44.6 ± 0.9; for Blood sugar level: control group 549.8 ± 21.8; for Blood sugar level, change vs control group / Body weight, change vs control group: in feed for a week, contents as in table
Procedure: (§1) Powered feed to which ascofuranone (AF) and ascochlorin (AC) as well as its derivatives, 4-0-methylascochlorin (MAC), 4-0-carboxymethylascochlorin (AS-6), and 4-0-nicotinoyl ascochlorin (AS-103) were added to feed at the proportions shown in the table, and the feed were given to db/db mice for a week and then analyzed for blood sugar decreasing effect (8 mice/group).

[2] = tested on: Mouse, rat, beagle dog, quail, DOCA hypertension rat; assay: Serum cholesterol decreasing effect; type: in vivo; conditions: incl. rat and quail raised with hyperfat feed
Procedure: The quails are raised by giving a feed containing 2% cholesterol for 9 months to develop hypercholesteremia, and, in the case of the rats, mineral corticoid and saline are administered to allow them to develop heart and blood vessel disease and then hypercholesteremia.

Lean = assay: Body weight and blood sugar in Lean mice (Example 7); type: in vivo, mouse; conditions: for Body weight / Blood sugar level: in feed for a week (MAC 0.05%, AS-103 0.05%, AR-610 0.1%, AF 0.4%, AC 0.05%); for Body weight: control group 20.9 ± 0.8; for Blood sugar level: control group 211.2 ± 7.8; for Blood sugar level, change vs control group / Body weight, change vs control group: in feed for a week, contents as in table
Procedure: [The procedure below names another variant; the source lists this variant under the same test.] as §1

Zucker rats = assay: Glucose tolerance test using Zucker rats (Example 6); type: in vivo, rat
Procedure: The effect of 4-O-carboxymethylascochlorin (AS-6) in a glucose tolerance test were checked by using Zucker rats. Zucker control rats, Zucker AS-6 administered rats (20 mg/kg, perorally for a week), and Lean control rats were fasted overnight. Next morning, blood was taken from the caudal vein, and thereafter, 2 g/kg of glucose was perorally administered. Blood was taken from the caudal vein 30, 60 and 120 minutes after the administration and checked for blood sugar (7 mice/group).

C57BL/6j-ob/ob mice = assay: AS-6 in feed to ob/ob mice (Example 3); type: in vivo, mouse; conditions: 0.1% in feed, 1 week
Procedure: C57BL/6j-ob/ob mice, which were model animals of multiple risk factor syndrome, were raised for a week with powered feed in which an ascochlorin derivative, 4-O-carboxymethylascochlorin (AS-6), was mixed in a content of 0.1%. Thereafter, the weight, blood sugar, blood insulin, and blood neutral fat were measured.

[3] = Zucker rats, 20 mg/kg perorally for a week

COc1c(Cl)c(C)c(C=O)c(O)c1C/C=C(C)/C=C/[C@@]1(C)[C@H](C)CCC(=O)[C@@H]1C [4-O-methylascochlorin]
atherosclerosis of the aorta, hypercholesterolemia, deposition of cholesterol onto the heart and the aorta (quail): the aforementioned changes are suppressed. | distribution of the isotope-labeled compound [1]: widely and specifically distributed in the adipose tissue as well as in the adrenal gland | synthesis of steroid hormones (glucocorticoid+mineral corticoid) of adrenal cortex [1]: regulates synthesis of steroid hormones | serum insulin (Mouse, db/db mouse): added in an amount of about 0.1% to feed and given to an animal, it decreases serum | Body weight (db/db mice): 45.5 ± 1.8 g | Blood sugar level (db/db mice): 478.0 ± 28.3 mg/dL | Blood sugar level, change vs control group (db/db mice): −13.3%* | Body weight, change vs control group (db/db mice): ns | serum cholesterol decreasing effect [2]: carboxymethylascochlorin, and ascofuranone exhibits an effect of decreasing serum | Body weight (Lean): 21.3 ± 0.9 g | Blood sugar level (Lean): 223.1 ± 11.6 mg/dL | Blood sugar level, change vs control group (Lean): ns | Body weight, change vs control group (Lean): ns

CC(C=CC1(C)C(C)CCC(=O)C1C)=CCc1c(O)c(C=O)c(C)c(Cl)c1OCC(=O)O (stereo not shown) [AS-6, 4-O-carboxymethylascochlorin]
serum insulin (Mouse, db/db mouse): added in an amount of about 0.1% to feed and given to an animal, it decreases serum | Body weight (db/db mice): 45.3 ± 1.7 g | Blood sugar level (db/db mice): 335.8 ± 8.5 mg/dL | Blood sugar level, change vs control group (db/db mice): −38.9%** | Body weight, change vs control group (db/db mice): ns | blood sugar, change vs Zucker control group (Zucker rats; 0 minute after glucose loading): −19.7%(*) | blood sugar (Zucker rats; 20 mg/kg perorally for a week, 0 minute after glucose loading (fasted overnight), Zucker control 107.5 ± 5.0): 86.3 ± 4.5 | blood sugar (Zucker rats; 20 mg/kg perorally for a week, 30 minutes after glucose loading, Zucker control 235.1 ± 9.6): 167.5 ± 3.8 | blood sugar (Zucker rats; 20 mg/kg perorally for a week, 60 minutes after glucose loading, Zucker control 275.8 ± 13.2): 220.2 ± 5.0 | blood sugar (Zucker rats; 20 mg/kg perorally for a week, 120 minutes after glucose loading, Zucker control 290.3 ± 4.6): 202.8 ± 3.6 | blood sugar, change vs Zucker control group (Zucker rats; 30 minutes after glucose loading): −28.8%(**) | blood sugar, change vs Zucker control group (Zucker rats; 60 minutes after glucose loading): −20.2%(*) | blood sugar, change vs Zucker control group (Zucker rats; 120 minutes after glucose loading): −30.1%(**) | blood sugar level 30, 60, 120 minutes after glucose loading (Zucker rats; [3]): significant decreases | decrease of fasting blood sugar level (Zucker rats; [3]): 19.7% | Blood sugar, change vs ob/ob control group (C57BL/6j-ob/ob mice): −32.4%* | Body weight, change vs ob/ob control group (C57BL/6j-ob/ob mice): ns | Cholesterol, change vs ob/ob control group (C57BL/6j-ob/ob mice): ns | Free fatty acid, change vs ob/ob control group (C57BL/6j-ob/ob mice): −43.6%** | Insulin, change vs ob/ob control group (C57BL/6j-ob/ob mice): −33.8% | Neutral fat, change vs ob/ob control group (C57BL/6j-ob/ob mice): −61.0%** | Free fatty acid (C57BL/6j-ob/ob mice; ob/ob control 1.224 ± 0.072): 0.690 ± 0.078 mEq/L | Body weight (C57BL/6j-ob/ob mice; ob/ob control 48.5 ± 0.6): 47.8 ± 0.6 g | Insulin (C57BL/6j-ob/ob mice; ob/ob control 73.9 ± 16.7): 48.9 ± 8.2 μU/mL9 | Neutral fat (C57BL/6j-ob/ob mice; ob/ob control 162.4 ± 16.0): 63.2 ± 7.2 mg/dL | Cholesterol (C57BL/6j-ob/ob mice; ob/ob control 268.5 ± 24.2): 249.7 ± 12.1 mg/dL | blood sugar (C57BL/6j-ob/ob mice; ob/ob control 360.4 ± 44.9): 243.8 ± 15.6 mg/dL | risk factors except for body weight and blood cholesterol (C57BL/6j-ob/ob mice; ob/ob mice): significantly reduced | serum cholesterol decreasing effect [2]: carboxymethylascochlorin, and ascofuranone exhibits an effect of decreasing serum | Body weight (Lean): 20.2 ± 0.4 g | Blood sugar level (Lean): 194.1 ± 9.5 mg/dL | Blood sugar level, change vs control group (Lean): ns | Body weight, change vs control group (Lean): ns
